Where “and” joins values, the source holds several entries; their conditions need not be identical. Equal values may be shown once.
Legend:
[1] = tested on: GL261 murine brain tumor cells; experiment: GL261 growth curve, cell volumes/areas and colony forming efficiency; format: cell-based
Protocol: 1×10^5 cells per 25 cm^2 flask at time zero (density 40 cells/mm^2). Three flasks were utilized at each time period. The medium in the flasks was not changed over the duration of the growth curve (unfed cultures). Data were taken daily from day zero to day 11.5 post-seeding and cell numbers, age distributions, and apoptotic percentages were determined. After growth curve shapes (without and with 2 μM tetrac) were determined, irradiation times at 70 and 270 hour post-seeding were chosen.
To obtain exponential and plateau phase cell numbers, we trypsinized ([…] trypsin-EDTA) cells for 5 min at 37° C.
For determination of CCDTs, the cell numbers per flask were determined on a daily basis. A four-day interval in the exponential region of growth to obtain the CCDTs, yielding a total of 12 estimations for analysis was utilized. A regression analysis was performed using the (log) of the cell number versus the linear time in days (SigmaPlot, V. 10, Systat Software, Inc., Point Richmond, Calif.). The log slope value and its standard error (SE) were determined, and the SE was converted to the 95% confidence limits using a two-tailed t-table at N−1 degrees of freedom where N is the number of samples. (See Goldstein, A. In: Biostatistics, New York, The MacMillan Co., 1964, p. 140-146).

[2] = Solubility; format: physicochemical
Protocol: Yield: 50%; off-white solid; recrist. solvent.: EtOH; TLC: Rf=0.43 (EtOAc/EtOH 9/1); RPTLC: Rf=0.43 (AcOH/H2O 8/2); mp=136° C.; IR (υ cm^−1): 1730 (CO); ^1H NMR (DMSO-d 6) δ (ppm): 7.79 (s, 2H, ArH), 7.14 (s, 2H, ArH), 4.06-4.02 (m, 2H, CH2), 3.93-3.89 (q, J=7.0 Hz, 2H, CH2), 3.59-3.56 (t, J=7.0 Hz, 1H, CH), 2.80-2.77 (m, 2H, CH2), 1.88 (br, 1H, NH), 1.41-1.39 (t, J=7.0 Hz, 3H, CH3), 1.15-1.12 (t, J=7.0 Hz, 3H, CH3); MS (ESI+) m/z 911.7[(M+DMSO)^+, 100], 833.7 [(M+H)+, 75]; Anal. Calcd. for C19H19I4NO4: C, 27.40; H, 2.30; N, 1.68. Found: C, 27.54; H, 1.94; N, 1.66. Solubility 10^−3M in water after preparing a solution at 10^−1M in DMSO.
When looking at the amorphous state, the solid was not stable and quickly returned to the crystal state. Thus, Tetrac was used as a salt with Na^+ as the counterion which reduced the use of DMSO to 10%. Then all analogs were solubilized with 10% DMSO in water for the TiPS protected analogs and in PBS for the others.

Compound: O=C(O)Cc1cc(I)c(Oc2cc(I)c(O)c(I)c2)c(I)c1 [Tetrac, tetraiodothyroacetic acid]
- decrease of final saturation density ([1]; 2 μM Tetrac): about 50%
- saturation density of control relative to tetrac-treated cells ([1]; 2 μM Tetrac): approximately 2.4 times
- cell culture doubling time, Tetrac-treated GL261 cells ([1]; 2 μM Tetrac, exponential growth): 43.8 ± 3.8 h and 43.8 h
- onset of exponential growth ([1]; 2 μM Tetrac, control 20 hours): about 40 hours
- Mean nuclear area (μm^2) ([1]; Exponential Cells (+Tetrac)): 1180 μm^2
- Median Volume (μm^3) ([1]; Exponential Cells (+Tetrac)): 3850 μm^3
- Median cell area (μm^2) ([1]; Exponential Cells (+Tetrac)): 2814 μm^2
- nuclear/cell area (%) ([1]; Exponential Cells (+Tetrac)): 42%
- Mean nuclear area (μm^2) ([1]; Plateau phase Cells (+Tetrac)): 310 μm^2
- Median Volume (μm^3) ([1]; Plateau phase Cells (+Tetrac)): 2780 μm^3
- Median cell area (μm^2) ([1]; Plateau phase Cells (+Tetrac)): 700 μm^2
- nuclear/cell area (%) ([1]; Plateau phase Cells (+Tetrac)): 44%
- CFE (%) ([1]; Plateau phase Cells (+Tetrac), with feeder cells): 8.8%
- cell size relative to control GL261 cells ([1]; exponential phase): 1.4 times
- cell size relative to control GL261 cells ([1]; plateau phase): 1.9 times
- solubility in water [2]: difficult to solubilize in water
